{"source": "patent US20150203837A1", "about": "“FUSION PROTEIN FOR ACTIVATING RTK SIGNAL TRANSMISSION BY MEANS OF LIGHT, AND USE THEREOF” (KOREA ADVANCED INSTITUTE OF SCIENCE AND TECHNOLOGY, priority 2012, published 2015)", "target": "T1, TrkB (Rattus norvegicus, UniProt Q63604)", "T1 construct": "PHR domain (1-498 a.a.) of Arabidopsis CRY2 (NM_100320); expressed in transfected cells; host or cells: HeLa; the other entry of the earlier key: CRY2 (Q96524, Cryptochrome-2)", "T1 sequence (Q63604 with tags, fused parts or gaps)": "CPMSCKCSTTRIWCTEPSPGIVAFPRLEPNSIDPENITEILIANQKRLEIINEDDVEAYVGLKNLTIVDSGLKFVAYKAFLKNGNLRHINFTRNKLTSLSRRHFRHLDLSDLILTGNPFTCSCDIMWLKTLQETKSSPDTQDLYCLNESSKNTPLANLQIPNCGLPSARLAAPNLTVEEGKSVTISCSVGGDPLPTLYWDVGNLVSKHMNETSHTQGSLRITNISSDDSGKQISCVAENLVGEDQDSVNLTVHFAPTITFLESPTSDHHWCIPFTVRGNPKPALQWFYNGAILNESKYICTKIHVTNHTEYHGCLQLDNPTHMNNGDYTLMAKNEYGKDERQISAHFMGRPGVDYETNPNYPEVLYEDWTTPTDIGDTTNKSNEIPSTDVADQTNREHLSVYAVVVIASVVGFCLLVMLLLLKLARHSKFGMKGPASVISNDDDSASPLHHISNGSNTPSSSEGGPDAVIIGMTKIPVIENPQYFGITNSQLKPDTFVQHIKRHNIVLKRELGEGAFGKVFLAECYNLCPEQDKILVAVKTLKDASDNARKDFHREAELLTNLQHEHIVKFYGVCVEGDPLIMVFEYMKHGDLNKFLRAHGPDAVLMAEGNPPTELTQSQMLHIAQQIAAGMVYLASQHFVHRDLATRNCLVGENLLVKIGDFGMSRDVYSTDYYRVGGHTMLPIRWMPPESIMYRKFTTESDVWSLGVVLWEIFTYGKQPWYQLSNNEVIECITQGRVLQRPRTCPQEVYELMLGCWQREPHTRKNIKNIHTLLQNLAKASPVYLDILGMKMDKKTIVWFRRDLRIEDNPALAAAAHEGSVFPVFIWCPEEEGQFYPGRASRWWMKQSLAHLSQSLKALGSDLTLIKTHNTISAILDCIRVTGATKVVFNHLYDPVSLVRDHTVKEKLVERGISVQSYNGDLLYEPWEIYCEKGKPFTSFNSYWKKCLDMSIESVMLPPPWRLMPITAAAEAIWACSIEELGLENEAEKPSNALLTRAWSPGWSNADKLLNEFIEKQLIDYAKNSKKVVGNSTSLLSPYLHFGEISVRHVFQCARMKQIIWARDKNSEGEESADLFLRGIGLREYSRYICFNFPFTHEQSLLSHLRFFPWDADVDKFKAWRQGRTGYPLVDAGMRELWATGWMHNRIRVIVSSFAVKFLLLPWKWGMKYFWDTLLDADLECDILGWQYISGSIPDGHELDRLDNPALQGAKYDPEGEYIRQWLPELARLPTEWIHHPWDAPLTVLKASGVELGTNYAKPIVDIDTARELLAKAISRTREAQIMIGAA", "experiment": "Light-induced calcium signaling after treatment with TrkB-specific inhibitor (R-GECO imaging)", "assay_type": "cell-based", "conditions": "100 nM K252a; HeLa cells co-transfected with TrkB-PHR-YFP and R-GECO; 488 nm light", "text": "The present inventors observed whether sub-RTK signaling was activated by light irradiation after treating a RTK-specific inhibitor in order to confirm that only RTK-specific signaling pathways are activated by light irradiation affecting downstream pathways thereof.\nThe present inventors used TrkB-PHR-YFP construct prepared in the example 1-1 as an example to investigate the activation of TRK signal transduction. In addition, the present inventors used R-GECO construct (Addgene, plasmid 32444; CMV-R-GECO1) to investigate whether calcium signaling among downstream signaling pathways of RTK is activated by light irradiation. Particularly, HeLa cells were co-transfected with the TrkB-PHR-YFP construct prepared in the example 1-1 and R-GECO construct and cultured in DMEM media containing 10% FBS in the condition of 37° C. and 10% CO2. The cultivated cells were treated with 100 nM of K252a known as a TrkB-specific inhibitor and images taken with a confocal microscope before and after the irradiation with light having 488 nm of wavelength were obtained and analyzed (FIG. 6). As a result, it was observed that there is no difference in the experimental group treated with K252a. On the contrary, the calcium signaling was changed according to light irradiation in the control group."}
{"smiles": "COC(=O)[C@@]1(O)C[C@H]2O[C@]1(C)n1c3ccccc3c3c4c(c5c6ccccc6n2c5c31)C(=O)NC4", "note": "[K252a]", "values": [{"measurement": "change of calcium signaling according to light irradiation", "value": "no difference"}]}
